Source: patent US20240123079A1 (Seagen Inc., priority 2021, published 2024)

Experiment: In vivo cytokine assay, plasma of Renca tumor-bearing mice
Parameters: species or system mouse; IFNg production in plasma / IL-1b production in plasma / IL-6 production in plasma / IL12p70 production in plasma / IP10 production in plasma / MIP1a production in plasma / MIP1b production in plasma / TNFa production in plasma: unit not given here
Protocol: Cytokines were measured in mouse plasma harvested at 3, 6, 24, or 48 hours after treatment with compounds or ADCs using a Milliplex MAP mouse cytokine/chemokine magnetic bead panel assay kit (MCYTOMAG-70k custom 11-plex kit: MCP1, MIP1α, MIP1β, TNFα, IFNγ, IL-10, IL-12p70, IL-6, IL-1β, IP10, RANTES) and analyzed using a Luminex™ MAGPIX™ Instrument System. Values that were outside of the standard curve range (<3.2 or […]) were excluded from calculation of the mean values.

Q: What does the source list for `CCn1nc(C)cc1C(=O)Nc1nc2cc(C(N)=O)cc(OC)c2n1C/C=C/Cn1c(NC(=O)c2cc(C)nn2CC)nc2cc(C(N)=O)cc(OCCCNC)c21` [Compound 12a]?
A: MCP-1 production in plasma (0.6 mg/kg, dose #1, 24 h): 141.5; MIP1a production in plasma (0.6 mg/kg, dose #1, 24 h): <3.2; MIP1b production in plasma (0.6 mg/kg, dose #1, 24 h): <3.2; RANTES production in plasma (0.6 mg/kg, dose #1, 24 h): 46.2; TNFa production in plasma (0.6 mg/kg, dose #1, 24 h): 5.2; IFNg production in plasma (0.6 mg/kg, dose #1, 48 h): <3.2; IL12p70 production in plasma (0.6 mg/kg, dose #1, 48 h): <3.2; IL-1b production in plasma (0.6 mg/kg, dose #1, 48 h): 5.7; IL-6 production in plasma (0.6 mg/kg, dose #1, 48 h): 1.8; IL-10 production in plasma (0.6 mg/kg, dose #1, 48 h): <3.2; IP10 production in plasma (0.6 mg/kg, dose #1, 48 h): 218.4; MCP-1 production in plasma (0.6 mg/kg, dose #1, 48 h): 40.0; MIP1a production in plasma (0.6 mg/kg, dose #1, 48 h): 10.3; MIP1b production in plasma (0.6 mg/kg, dose #1, 48 h): <3.2; RANTES production in plasma (0.6 mg/kg, dose #1, 48 h): 5.0; TNFa production in plasma (0.6 mg/kg, dose #1, 48 h): <3.2; IFNg production in plasma (0.6 mg/kg, dose #2, 6 h): 41.5; IL12p70 production in plasma (0.6 mg/kg, dose #2, 6 h): 28.4; IL-1b production in plasma (0.6 mg/kg, dose #2, 6 h): 5.8; IL-6 production in plasma (0.6 mg/kg, dose #2, 6 h): 516.9; IL-10 production in plasma (0.6 mg/kg, dose #2, 6 h): <3.2; IP10 production in plasma (0.6 mg/kg, dose #2, 6 h): 3996.6; MCP-1 production in plasma (0.6 mg/kg, dose #2, 6 h): 9761.2; MIP1a production in plasma (0.6 mg/kg, dose #2, 6 h): 115.5; MIP1b production in plasma (0.6 mg/kg, dose #2, 6 h): 837.6; RANTES production in plasma (0.6 mg/kg, dose #2, 6 h): 621.6; TNFa production in plasma (0.6 mg/kg, dose #2, 6 h): 16.7; IFNg production in plasma (1.8 mg/kg, dose #1, 3 h): <3.2; IL12p70 production in plasma (1.8 mg/kg, dose #1, 3 h): 3.1; IL-1b production in plasma (1.8 mg/kg, dose #1, 3 h): 7.5; IL-6 production in plasma (1.8 mg/kg, dose #1, 3 h): 4314.6; IL-10 production in plasma (1.8 mg/kg, dose #1, 3 h): 27.3; IP10 production in plasma (1.8 mg/kg, dose #1, 3 h): 8222.7; MCP-1 production in plasma (1.8 mg/kg, dose #1, 3 h): 5805.3; MIP1a production in plasma (1.8 mg/kg, dose #1, 3 h): 1052.6; MIP1b production in plasma (1.8 mg/kg, dose #1, 3 h): 7438.6; RANTES production in plasma (1.8 mg/kg, dose #1, 3 h): 51.2; TNFa production in plasma (1.8 mg/kg, dose #1, 3 h): 46.4; IFNg production in plasma (1.8 mg/kg, dose #1, 6 h): 36.4; IL12p70 production in plasma (1.8 mg/kg, dose #1, 6 h): <3.2; IL-1b production in plasma (1.8 mg/kg, dose #1, 6 h): 0.7; IL-6 production in plasma (1.8 mg/kg, dose #1, 6 h): 543.0; IL-10 production in plasma (1.8 mg/kg, dose #1, 6 h): 9.9; IP10 production in plasma (1.8 mg/kg, dose #1, 6 h): 7589.2; MCP-1 production in plasma (1.8 mg/kg, dose #1, 6 h): 13861.5; MIP1a production in plasma (1.8 mg/kg, dose #1, 6 h): 172.2; MIP1b production in plasma (1.8 mg/kg, dose #1, 6 h): 1162.7; RANTES production in plasma (1.8 mg/kg, dose #1, 6 h): 526.2; TNFa production in plasma (1.8 mg/kg, dose #1, 6 h): 21.2; IFNg production in plasma (1.8 mg/kg, dose #1, 24 h): <3.2; IL12p70 production in plasma (1.8 mg/kg, dose #1, 24 h): <3.2; IL-1b production in plasma (1.8 mg/kg, dose #1, 24 h): 3.2; IL-6 production in plasma (1.8 mg/kg, dose #1, 24 h): 6.8; IL-10 production in plasma (1.8 mg/kg, dose #1, 24 h): <3.2; IP10 production in plasma (1.8 mg/kg, dose #1, 24 h): 595.6; MCP-1 production in plasma (1.8 mg/kg, dose #1, 24 h): 143.9; MIP1a production in plasma (1.8 mg/kg, dose #1, 24 h): 10.3; MIP1b production in plasma (1.8 mg/kg, dose #1, 24 h): <3.2; RANTES production in plasma (1.8 mg/kg, dose #1, 24 h): 48.8; TNFa production in plasma (1.8 mg/kg, dose #1, 24 h): 3.2; IFNg production in plasma (1.8 mg/kg, dose #1, 48 h): <3.2; IL12p70 production in plasma (1.8 mg/kg, dose #1, 48 h): <3.2; IL-1b production in plasma (1.8 mg/kg, dose #1, 48 h): 3.2; IL-6 production in plasma (1.8 mg/kg, dose #1, 48 h): 1.5; IL-10 production in plasma (1.8 mg/kg, dose #1, 48 h): <3.2; IP10 production in plasma (1.8 mg/kg, dose #1, 48 h): 223.5; MCP-1 production in plasma (1.8 mg/kg, dose #1, 48 h): 2.0; MIP1a production in plasma (1.8 mg/kg, dose #1, 48 h): <3.2; MIP1b production in plasma (1.8 mg/kg, dose #1, 48 h): <3.2; RANTES production in plasma (1.8 mg/kg, dose #1, 48 h): <3.2; TNFa production in plasma (1.8 mg/kg, dose #1, 48 h): 3.2; IFNg production in plasma (1.8 mg/kg, dose #2, 6 h): 80.4; IL12p70 production in plasma (1.8 mg/kg, dose #2, 6 h): 28.4; IL-1b production in plasma (1.8 mg/kg, dose #2, 6 h): 4.6; IL-6 production in plasma (1.8 mg/kg, dose #2, 6 h): 1681.6; IL-10 production in plasma (1.8 mg/kg, dose #2, 6 h): 7.7; IP10 production in plasma (1.8 mg/kg, dose #2, 6 h): 4151.5; MCP-1 production in plasma (1.8 mg/kg, dose #2, 6 h): 17185.9; MIP1a production in plasma (1.8 mg/kg, dose #2, 6 h): 209.9; MIP1b production in plasma (1.8 mg/kg, dose #2, 6 h): 1407.7; RANTES production in plasma (1.8 mg/kg, dose #2, 6 h): 892.1; TNFa production in plasma (1.8 mg/kg, dose #2, 6 h): 46.4; systemic pro-inflammatory cytokine (IL-6 and TNF) production (plasma of tumor-bearing mice): induced robust production of IL-6 and TNF
